Some test systems named below: A549 NSCLC; BT-549 breast; CCRF-CEM leukemia; HT29 colon; M14 melanoma; OVCAR-4 ovarian; RXF 393 renal; SN12C renal; UACC-62 melanoma; HL-60(TB) leukemia.
Holding throughout (experiment): DTP human tumour cell line panel, 48 h

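Compound exposure: 48 hours, 5 concentrations, 96-well plates. GI50 marks 50% less growth. Definition used: TGI = concentration required for complete inhibition of growth.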

The GI50 is the concentration that inhibits growth by half. What is called TGI is the concentration at which net growth stops. A higher TGI goes with less potent growth arrest. Regarding `Cc1cc(=O)oc2ccc(OC/C=C3\CCC(=O)O3)cc12`, the GI50 in the test with A549 NSCLC is 17 µM; in the test with BT-549 breast it was 7.49 µM; with CCRF-CEM leukemia, 2.61 µM; in the test with HT29 colon, 3.62 µM; in the test with M14 melanoma, 1.75 µM; in the test on OVCAR-4 ovarian, 1.21 µM. Besides, the GI50 in the test on RXF 393 renal was 5.85 µM; in the test on SN12C renal it was 13.5 µM; in the test on UACC-62 melanoma, 10.3 µM. In addition, the TGI in the test on A549 NSCLC amounted to 33 µM; with BT-549 breast, 23.4 µM; in the test with CCRF-CEM leukemia, 7.96 µM; with HT29 colon, 15.5 µM; with M14 melanoma, 5.37 µM; in the test with OVCAR-4 ovarian, 3.13 µM. Besides, the concentration for total growth inhibition (TGI) in the test on RXF 393 renal was 21.3 µM; in the test with SN12C renal it was 31.4 µM; with UACC-62 melanoma, 22.8 µM.
For the compound `O=C(O)C1=C/C(=C(/c2ccccc2)c2cc(C(=O)O)c(O)c3ccccc23)c2ccccc2C1=O`, the TGI in the test on A549 NSCLC, in the test with BT-549 breast, in the test with CCRF-CEM leukemia, in the test on HT29 colon, in the test with M14 melanoma and in the test on OVCAR-4 ovarian was above 100 µM each time. For the same compound, the TGI in the test with RXF 393 renal, in the test on SN12C renal and in the test on UACC-62 melanoma was above 100 µM in each case.
Take `NC(N)=N/N=C/c1c(-c2ccsc2)nc2n1CCS2`: the GI50 in the test with A549 NSCLC is 73.7 µM; in the test on BT-549 breast it was 33.9 µM; in the test on CCRF-CEM leukemia, 19.5 µM; in the test on HT29 colon, 51 µM; in the test on M14 melanoma it was 15.1 µM; in the test on RXF 393 renal, 30.5 µM. Moreover, the GI50 was 15.5 µM with SN12C renal and 21.6 µM with UACC-62 melanoma. The concentration for total growth inhibition (TGI) in the test on A549 NSCLC was above 100 µM; with BT-549 breast, 78.7 µM; in the test with CCRF-CEM leukemia, 54.6 µM; in the test with HT29 colon it was above 100 µM; in the test with M14 melanoma, 29.1 µM; in the test with RXF 393 renal it was above 100 µM. For the same compound, the total growth inhibition concentration (TGI) in the test on SN12C renal worked out at 54.9 µM; in the test with UACC-62 melanoma, 69.9 µM.
Consider `Cn1cc(/C=C\[N+](=O)[O-])c2ccccc21`, for which the GI50 in the test with A549 NSCLC was 46.4 µM; with BT-549 breast, 34.3 µM; in the test on CCRF-CEM leukemia it was 25.2 µM; with HT29 colon it was 21.4 µM; in the test on M14 melanoma, 37.1 µM; with RXF 393 renal, 17.6 µM. Further, the GI50 in the test with SN12C renal was above 100 µM; in the test on UACC-62 melanoma, 83.6 µM. For the same compound, the TGI is above 100 µM in the test on A549 NSCLC; 78.5 µM in the test on BT-549 breast; above 100 µM in the test on CCRF-CEM leukemia; 39.8 µM with HT29 colon; above 100 µM in the test on M14 melanoma; 32.3 µM with RXF 393 renal. Moreover, the concentration for total growth inhibition (TGI) with SN12C renal and with UACC-62 melanoma was above 100 µM throughout.
On to `COc1cnc2c(c1)C(=O)c1c-2n(CCCNC2=NCCS2)c(=O)c2cc(F)ccc12`, for which the 50% growth inhibitory concentration (GI50) is 0.155 µM in the test with A549 NSCLC; 1.08 µM in the test on BT-549 breast; 0.0402 µM with CCRF-CEM leukemia; 0.381 µM in the test on HL-60(TB) leukemia; 0.0753 µM with HT29 colon; 0.17 µM in the test with M14 melanoma. Moreover, the GI50 is 0.463 µM in the test with OVCAR-4 ovarian, 0.238 µM with SN12C renal and 0.344 µM in the test with UACC-62 melanoma. Moreover, the TGI in the test with A549 NSCLC was determined as 1.75 µM; in the test on BT-549 breast it was 17.5 µM; with CCRF-CEM leukemia, 5.49 µM; in the test with HL-60(TB) leukemia, 1.56 µM; in the test with HT29 colon, 2.02 µM; with M14 melanoma, 1.32 µM. In addition, the TGI in the test with OVCAR-4 ovarian was 2.36 µM; with SN12C renal, 12.3 µM; with UACC-62 melanoma it was 14.6 µM.
For `COc1ccc(-c2cc(=O)c3c(O)c(OC)c(OC)c(OC)c3o2)cc1OC`, the TGI in the test with A549 NSCLC, with BT-549 breast, in the test with CCRF-CEM leukemia, in the test with HL-60(TB) leukemia, in the test with HT29 colon and in the test on M14 melanoma was above 100 µM each time. Also, the TGI in the test with OVCAR-4 ovarian, in the test with SN12C renal and in the test with UACC-62 melanoma was above 100 µM throughout.
As for `CCOC(=O)[C@@H](C)C[C@H](Cc1ccccc1)NC(=O)c1csc([C@@H](C[C@H](C(C)C)N(C)C(=O)[C@@H](NC(=O)[C@H]2CCCCN2C)C(C)(C)CC)OC(C)=O)n1`, the GI50 is below 0.00167 µM in the test on A549 NSCLC; below 0.00167 µM with BT-549 breast; 0.00246 µM with CCRF-CEM leukemia; below 0.00167 µM in the test with HL-60(TB) leukemia; below 0.00167 µM with HT29 colon; below 0.00167 µM with M14 melanoma. Also, the figures for the GI50 in the test with OVCAR-4 ovarian, with SN12C renal and with UACC-62 melanoma were 0.0146 µM, 0.00247 µM and below 0.00167 µM, respectively. In addition, the TGI in the test with A549 NSCLC is above 16.7 µM; in the test on BT-549 breast, 0.107 µM; with CCRF-CEM leukemia, above 8.65 µM; with HL-60(TB) leukemia it was 0.0034 µM; in the test with HT29 colon it was above 6.79 µM; with M14 melanoma, 1.8 µM. For the same compound, the TGI with OVCAR-4 ovarian is above 16.7 µM; in the test with SN12C renal, 5.9 µM; in the test on UACC-62 melanoma, above 16.7 µM.
